These results are taken from PMC8197800, “Structure and Dynamics of Meprin β in Complex with a Hydroxamate-Based Inhibitor” (International Journal of Molecular Sciences, 2021).

Where two headings read alike, the source gives them in different places.

In one test the target is T1, Meprin β (Homo sapiens, UniProt Q16820).
T1 construct: For the purified, truncated variant Meprin β^62–595 (MβΔC), despite reduced protein yield, identical specific activity was detected; His-tag (N, cleaved yes); made in house; host or cells: Pichia pastoris
T1 sequence (Q16820 62-595): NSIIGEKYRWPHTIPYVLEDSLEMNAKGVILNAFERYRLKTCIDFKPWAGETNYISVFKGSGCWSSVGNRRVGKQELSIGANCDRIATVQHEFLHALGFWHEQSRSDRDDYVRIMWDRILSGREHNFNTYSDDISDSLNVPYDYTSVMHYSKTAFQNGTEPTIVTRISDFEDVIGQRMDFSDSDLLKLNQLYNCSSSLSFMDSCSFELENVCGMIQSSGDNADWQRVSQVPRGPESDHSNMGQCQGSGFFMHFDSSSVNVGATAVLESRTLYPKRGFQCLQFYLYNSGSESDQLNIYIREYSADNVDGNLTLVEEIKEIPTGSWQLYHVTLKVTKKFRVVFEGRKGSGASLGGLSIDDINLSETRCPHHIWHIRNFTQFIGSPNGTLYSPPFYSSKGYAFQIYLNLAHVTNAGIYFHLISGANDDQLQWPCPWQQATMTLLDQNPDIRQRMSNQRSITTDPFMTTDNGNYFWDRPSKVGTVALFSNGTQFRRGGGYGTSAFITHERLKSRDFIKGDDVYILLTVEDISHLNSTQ
Briefly: Meprin β enzyme inhibition (cleavage of quenched fluorogenic peptide Abz-YVAEAPK(Dnp)G-OH). In kind it is biochemical. As to the method: The enzymatic activity of Meprin β was determined, essentially as described previously. The assay is based on the change of fluorescence intensity due to cleavage of the internally quenched peptide substrate Abz-YVAEAPK(Dnp)G-OH (λex 340 nm/λem 420 nm). For activity determination during expression and purification, the proenzyme was activated by trypsin. For activation, 100 µL of cleavage buffer (50 mM Tris/HCl, 10 mM CaCl2, pH 7.5), 50 µL Meprin β solution and 50 µL bovine trypsin 500 µg/mL (Sigma Aldrich) were mixed and incubated for 15 min at 30 °C. An aliquot of the reaction (50 µL) was mixed again with 150 µL assay buffer consisting of 40 mM Tris/HCl, pH 8.0, 0.05% Brij 30. The reaction was initiated by addition of 50 µL of substrate (final concentration 50 µM), which was dissolved in assay buffer.

Test [1] concerns the target T2, Meprin β62–595 (MβΔC) (Homo sapiens, UniProt Q16820).
T2 construct: His-tag (N, cleaved yes); α-mating factor secretion signal (S. cerevisiae) (N, cleaved yes); made in house; host or cells: Pichia pastoris X33
T2 sequence (Q16820 62-595): T1 sequence (Q16820 62-595)
Briefly: Isothermal titration calorimetry (ITC) of inhibitors to Meprin β62–595 (MβΔC). On the set-up: H (one-site fit) / S (one-site fit): unit not given here. Conditions: for H (one-site fit) / K (association constant, one-site fit) / N (stoichiometry, one-site fit) / S (one-site fit): ITC fit; for Kd / ΔH (binding enthalpy) / −ΔS * T (binding entropy term): ITC, 30 °C. It is filed as binding. As to the method: The binding affinity (KD), binding enthalpy (ΔH), binding entropy (ΔS) and stoichiometry (N) of different Meprin β inhibitors to Meprin β^62–595 (MβΔC) were determined by isothermal titration of the inhibitors to the enzyme at 30 °C using a VP-ITC microcalorimeter (MicroCal). Prior to the binding analysis, the purified Meprin β^62–595 (MβΔC) was dialyzed extensively against 40 mM Tris pH 8.0 (±150 mM NaCl). The inhibitors were diluted 1:50 from DMSO stock solutions into dialysis buffer and 2% (v/v) DMSO were added to the dialyzed enzyme solution immediately before starting the titration experiment. The instrument was operated according to the manufacturer’s instructions and the data analyzed using MicroCal ORIGIN software. The obtained binding heat was corrected by the dilution heat of the ligand, which was recorded by titration of the inhibitor (1:50 diluted) into the dialysis buffer containing 2% (v/v) DMSO. The corrected data were evaluated by a single-site binding model calculating N, KD, ΔH and ΔS.
1. MWT-S-270 (-NaCl) 2. MWT-S-270 (+ NaCl)
Figure S7: ITC binding curves for the titration of Meprin β62-595 (MβΔC) with different inhibitors. […]

Another test deals with Meprin α. Conditions: cited from earlier work.
Test [2] concerns the target T2, Meprin β62–595 (MβΔC). Briefly: Proteolytic stability of concentrated Meprin β62–595 (MβΔC) with inhibitor, SDS-PAGE. Conditions: 15 °C; for stability of Meprin β62–595 (MβΔC) with inhibitor added: SDS-PAGE; for degradation of Meprin β62–595 (MβΔC) on addition of inhibitor: up to 15 days, molar ratio 1:1.3 (actinonin), 1:1.2 (MWT-S-270). As to the method: For reduction of potential heterogeneity, flexible glycosyl chains were removed by deglycosylation. The influence of different detergents and protein concentrations on the deglycosylation and stability of the enzyme has been investigated and analyzed by SDS-PAGE. […] To prevent degradation, the non-specific Meprin β inhibitor actinonin or the specific Meprin β inhibitor MWT-S-270 was added to the protein solution in a molar ratio of 1:1.3 and 1:1.2, respectively.
For the removal of surface-exposed glycosyl chains, a deglycosylation was performed prior to crystallization.
(MβΔC) before and after deglycosylation by EndoH under native conditions.
(1 picture or pasted object on this page, not shown here)

Where [3] appears, read: 40 mM Tris pH 8.0 (no NaCl), read-out: Ki.

Molecule `O=C(CN(Cc1cccc(C(=O)O)c1)Cc1ccc2c(c1)OCO2)NO` [2 (416)] yielded an IC50 against Meprin β (40 mM Tris pH 8.0 (no NaCl)) of 285 nM. Also, the Ki on Meprin β (setting [3]) is 192 nM. For the same molecule, at Meprin β62–595 (MβΔC) [1] (Figure S7, -NaCl), the “H (one-site fit)” value was -3966 ±57,47; the “K (association constant, one-site fit)” value is 4,21E6 ±6,18E5; the “N (stoichiometry, one-site fit)” value is recorded as 1,06 ±0,0110; the “S (one-site fit)” value is 17,2. At Meprin β62–595 (MβΔC) [1] (40 mM Tris pH 8.0 (no NaCl)), binding was put at a Kd of 237 nM, the “ΔH (binding enthalpy)” value is -3.966 kcal/mol and the “−ΔS * T (binding entropy term)” value was -5.212 kcal/mol.

On to `O=C(CN(Cc1cccc(C(=O)O)c1)Cc1cccc(C(=O)O)c1)NO` [1 (270), 3-[[(3-Carboxyphenyl)methyl-[2-(hydroxyamino)-2-oxoethyl]amino]methyl]benzoic acid], for which, in the test with Meprin α (read-out: IC50 towards Meprin α), the IC50 was 16000 nM. Moreover, the “stronger inhibition of Meprin β in comparison to Meprin α” value in the test with Meprin α (selectivity Meprin β over Meprin α) is given as “more than 100 fold”. Further, at Meprin β62–595 (MβΔC) [2], the “stability of Meprin β62–595 (MβΔC) with inhibitor added” value was “at least 15 days” and the “degradation of Meprin β62–595 (MβΔC) on addition of inhibitor” value was “prevented”. The molecule also returned an IC50 against Meprin β (150 mM NaCl, 40 mM Tris pH 8.0) of 176 nM. Also, at Meprin β (150 mM NaCl, 40 mM Tris pH 8.0, read-out: Ki), the Ki worked out at 198 nM. The same molecule had a Ki at Meprin β (Ki, 40 mM Tris pH 8.0 (no NaCl)) of 28.6 nM. In addition, at Meprin β62–595 (MβΔC) [1] (Figure S7, + NaCl), the “H (one-site fit)” value is listed as -4554 ±133,1; the “K (association constant, one-site fit)” value is reported as 2,50E6 ±5,30E5; the “N (stoichiometry, one-site fit)” value is recorded as 1,13 ±0,0246; the “S (one-site fit)” value was 14,2. Further, on Meprin β62–595 (MβΔC) [1] (Figure S7, -NaCl), the “H (one-site fit)” value was -3884 ±41.29; the “K (association constant, one-site fit)” value was found to be 6.31E7 ±1.05E7; the “N (stoichiometry, one-site fit)” value amounted to 0.939 ±0.00648; the “S (one-site fit)” value was found to be 22.9. On Meprin β62–595 (MβΔC) [1] (40 mM Tris pH 8.0 (no NaCl)), the affinity, expressed as Kd, was 16 nM; the “ΔH (binding enthalpy)” value is -3.884 kcal/mol; the “−ΔS * T (binding entropy term)” value was -6.939 kcal/mol. At Meprin β62–595 (MβΔC) [1] (150 mM NaCl, 40 mM Tris pH 8.0), the affinity, expressed as Kd, was 400 nM; the “ΔH (binding enthalpy)” value was -4.554 kcal/mol; the “−ΔS * T (binding entropy term)” value is -4.303 kcal/mol.

As to `CCCCC[C@H](CC(=O)NO)C(=O)N[C@H](C(=O)N1CCC[C@H]1CO)C(C)C` [actinonin, reference compound], at Meprin β62–595 (MβΔC) [2], the “stability of Meprin β62–595 (MβΔC) with inhibitor added” value is recorded as “at least 15 days” and the “degradation of Meprin β62–595 (MβΔC) on addition of inhibitor” value is “prevented”.

As for `O=C(CN(Cc1ccccc1)Cc1cccc(C(=O)O)c1)NO` [3 (396)], it took 1280 nM to reach half-maximal inhibition against Meprin β (40 mM Tris pH 8.0 (no NaCl)) (IC50). Further, the Ki on Meprin β (setting [3]) was found to be 1390 nM. At Meprin β62–595 (MβΔC) [1] (Figure S7, -NaCl), the “H (one-site fit)” value was -1138 ±32.08; the “K (association constant, one-site fit)” value is 1.34E6 ±2.22E5; the “N (stoichiometry, one-site fit)” value was 1.09 ±0.0225; the “S (one-site fit)” value worked out at 24.3. Besides, on Meprin β62–595 (MβΔC) [1] (40 mM Tris pH 8.0 (no NaCl)), the Kd came to 746 nM, the “ΔH (binding enthalpy)” value is -1.138 kcal/mol and the “−ΔS * T (binding entropy term)” value was -7.363 kcal/mol.
